Results as given in paper PMC6222380 (Molecules : A Journal of Synthetic Chemistry and Natural …, 2018).
Where “and” joins values, the source holds several entries; their conditions need not be identical. Equal entries are not always repeated. Where two headings read alike, the source gives them in different places.

Tests used:
CB1 receptor = molecular target: T1, CB1 receptor (Homo sapiens, UniProt P21554); assay: Competitive [3H]-CP55,940 radioligand binding assay, CB1; settings: for Further binding analysis at CB1 (binding curve outcome): curves plateaued well before 100% receptor occupancy (Figure S2)
T1 construct: transiently transfected with full-length human recombinant cDNA (OriGene, Rockville, MD, USA); host or cells: HEK293
Procedure: (§1) HEK293 cells were collected and transiently transfected with full-length human recombinant cDNA (OriGene, Rockville, MD, USA) containing expression clones to generate separate cell lines expressing either the CB1 or CB2 receptors (50 µg/mL) using electroporation (70 ms, single pulse, 150 volts). Transfected cells were grown in a 150 cm^2 Petri dish at 37 °C. G418 antibiotic solution (800 μg/mL) was used for selection. After selection, the HEK293 cells were further cultured until single colonies were obtained. The colonies with binding ratio (%) over 80% were chosen for binding and functional assays.
(§2) Cell plasma membranes were prepared from cells with stable expression of CB1 or CB2 receptors. Cells grown to confluency were lysed and scraped in cold 50 mM Tris-HCl buffer at pH 7.4 and then centrifuged at 1000 rpm for 10 min at 4 °C. The supernatant was discarded while the pellets were resuspended in the same buffer. A Sonic Dismembrator Model 100 (Fisher Scientific, Pittsburgh, PA, USA) was used to homogenize the cell suspension for 30 s, which was then centrifuged at 3165 rpm for 10 min at 4 °C to separate the membranes and cytosolic fractions. The supernatant was saved, and the pellet underwent the suspension and homogenization process repeated two more times with the same conditions. The supernatants were combined and centrifuged at 13,650 rpm for 40 min at 4 °C. The pellet was re-suspended in cold 50 mM Tris-HCl buffer, aliquoted into 2 mL vials, and stored at −80 °C. The total membrane protein concentration was measured using a Pierce BCA Protein Assay Kit (Thermo Scientific, Rockford, IL, USA) as per the manufacturer’s protocol.
(§3) Competitive binding assays were performed with a modified rapid filtration assay described by Ma et al. (2007) and Felder et al. (1992). […] The reaction was terminated via rapid vacuum filtration with cold Tris-HCl with 0.1% BSA through a 96-well UniFilter GF/C filter precoated with 0.5% Polyethyleneimine (PEI,) to separate bound and unbound radioligand. Filter plates were dried at 50 °C for at least 30 min, then 25 μL MicroScint-20 was applied to each filter and the plates were read on a TopCount NXT HTS Microplate Scintillation Counter (PerkinElmer, Waltham, MA). Filter bound radioactivity was recorded in counts per minute (CPM).
(§4) The percent binding of the nonlabeled control to the receptor was calculated using total, specific, and nonspecific binding. […] All the experimental data were analyzed using a nonlinear regression curve fit model using GraphPad Prism 5.0 software (GraphPad Software, Inc., San Diego, CA, USA) and the Kd value was calculated. Each compound was tested in triplicate, unless stated otherwise.
(§5) Percent displacement of radioligand was determined using the following equation:(1) % displacement of radioligand=100 –(compound.CPM−nonspecific.CPM/specific.CPM ×100)
(§6) The IC50 and Ki values were calculated from a nonlinear regression curve fit model using GraphPad Prism 5.0 software (GraphPad Software, Inc., San Diego, CA, USA).

CB2 receptor = molecular target: T2, CB2 receptor (Homo sapiens, UniProt P34972); assay: Competitive [3H]-CP55,940 radioligand binding assay, CB2; settings: for Ki: read-out: Ki ± SEM CB2; for IC50: Table 1, superscript a = up to solubility limit, read-out: IC50 ± SEM CB2
T2 construct: transiently transfected with full-length human recombinant cDNA (OriGene, Rockville, MD, USA); host or cells: HEK293
Procedure: as §1, §2, §3, §4, §5, §6

[1] = molecular target: T3, human cannabinoid type 1 receptor (Homo sapiens, UniProt P21554); assay: CB1 GTPγS functional assay; assay type: biochemical
T3 construct: transiently transfected with full-length human recombinant cDNA (OriGene, Rockville, MD, USA); host or cells: HEK293
Procedure: The CB1 GTPγS functional assays were performed as previously described with some modifications. The assays were performed in […] of 50 mM Tris-HCl, pH = 7.4, 150 mM NaCl, 9 mM MgCl2, 0.2 mM EDTA, 1.4 mg/mL essentially fatty acid free BSA, 50 pM [^35S]-GTPγS ([^35S]-guanosine 5′-(γ-thio) triphosphate (PerkinElmer, Waltham, Massachusetts)), and 30 μg of protein per well harvested from HEK293 cells stably transfected with a plasmid overexpressing the human cannabinoid type 1 receptor. […] Plates were incubated for 90 min at 37 °C with gentle agitation in 96-well microplates, harvested with a PerkinElmer FilterMate Harvester through Unifilter GF/B filter plates (prewetted for 30 min with 0.3% BSA), and then washed 10× with […] of ice-cold 50 mM TrisHCl, pH 7.4. The filter plates were dried at 50 °C for at least 30 min. The radioactivity retained on the filters was quantified by adding […] MicroScint20 per well, incubating the filter plate overnight at room temperature to allow the radioactivity to solubilize into the scintillation fluid, and counting on a TopCount NXT Microplate Scintillation counter. Percent over basal was calculated in Microsoft Excel by subtracting the mean basal control from each value obtained and then dividing by the basal specific activity (mean basal control∓mean nonspecific binding control). Dose response curves (± SEM) of percent over basal versus log of the molar concentration of unlabeled ligand(s) were generated by a nonlinear curve fit model using GraphPad Prism 5.0 software.

[2] = Table S1 preliminary screening, 10 μM
[3] = Table 1, initial full-curve binding, superscript a = up to solubility limit, read-out: IC50 ± SEM CB1
[4] = Table 1 and text, initial full-curve binding, read-out: Ki ± SEM CB1

T2 sequence (P34972 whole entry): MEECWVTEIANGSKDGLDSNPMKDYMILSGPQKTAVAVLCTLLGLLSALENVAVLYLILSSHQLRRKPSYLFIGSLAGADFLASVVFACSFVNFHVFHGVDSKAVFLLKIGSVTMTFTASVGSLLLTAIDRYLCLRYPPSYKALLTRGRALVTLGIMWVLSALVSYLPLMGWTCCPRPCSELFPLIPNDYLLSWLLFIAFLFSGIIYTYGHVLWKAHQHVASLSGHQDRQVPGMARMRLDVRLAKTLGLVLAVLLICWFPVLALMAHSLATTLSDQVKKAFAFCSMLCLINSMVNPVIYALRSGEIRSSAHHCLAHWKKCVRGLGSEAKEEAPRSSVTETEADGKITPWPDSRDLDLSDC
T1 sequence (P21554 whole entry): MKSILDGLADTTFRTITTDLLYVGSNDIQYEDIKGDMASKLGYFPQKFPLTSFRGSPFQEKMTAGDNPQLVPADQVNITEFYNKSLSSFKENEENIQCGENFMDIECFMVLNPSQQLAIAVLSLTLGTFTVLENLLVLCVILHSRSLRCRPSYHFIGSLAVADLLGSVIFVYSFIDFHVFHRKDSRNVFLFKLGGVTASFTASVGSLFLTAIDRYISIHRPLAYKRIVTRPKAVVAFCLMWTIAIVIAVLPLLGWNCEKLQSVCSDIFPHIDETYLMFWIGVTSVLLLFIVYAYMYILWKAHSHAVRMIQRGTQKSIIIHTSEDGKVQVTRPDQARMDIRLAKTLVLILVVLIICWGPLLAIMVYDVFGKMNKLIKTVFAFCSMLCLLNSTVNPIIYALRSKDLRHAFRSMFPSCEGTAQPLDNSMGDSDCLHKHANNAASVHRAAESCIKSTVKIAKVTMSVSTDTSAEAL
T3 sequence (P21554 whole entry): as above

SMILES: COc1ccc2c(ccn2CCC(=O)N[C@@H](Cc2c[nH]c3ccccc23)C(=O)O)c1 [Compound 10]
- % displacement at 10 μM CB1 (CB1 receptor; [2]): 30.2%
- % displacement at 10 μM CB2 (CB2 receptor; [2]): 17.3%

SMILES: COCCN1C(=O)C(O)=C(C(=O)c2ccc3c(c2)CC(C)O3)C1c1ccc(C(C)C)cc1 (stereo not shown) [Compound 3]
- % displacement at 10 μM CB1 (CB1 receptor; [2]): ~ 10%
- Ki (CB2 receptor; Table 1 and text): 2.6 µM
- % displacement at 10 μM CB2 (CB2 receptor; [2]): 51% and > 50%

SMILES: Cc1ccc(COc2ccc(-c3nc(N)ncc3Oc3ccccc3Br)c(O)c2)cc1 [Compound 15]
- Further binding analysis at CB1 (binding curve outcome) (CB1 receptor): no true affinity
- % displacement at 10 μM CB2 (CB2 receptor; [2]): 35.5%

SMILES: COC(=O)c1ccc(C=C2Oc3c(ccc(O)c3CN(CC(C)C)CC(C)C)C2=O)cc1 [Compound 17]
- Further binding analysis at CB1 (binding curve outcome) (CB1 receptor): no true affinity
- % displacement at 10 μM CB2 (CB2 receptor; [2]): 35%

SMILES: COC(=O)CC(c1ccc2c(c1)OCO2)c1oc(CSc2ccccc2)cc(=O)c1O (stereo not shown) [Compound 12]
- IC50 (CB1 receptor; [3]): > 5.3 µM
- Ki (CB1 receptor; [4]): > 2.6 µM
- % displacement at 10 μM CB1 (CB1 receptor; [2]): 69.9% and > 50%
- IC50 (CB2 receptor): > 5.93 µM
- Ki (CB2 receptor; Table 1 and text): > 2.97 µM
- % displacement at 10 μM CB2 (CB2 receptor; [2]): 63% and > 50%
- EC50 [1]: 1.6 µM
- Functional phenotype at CB1 in GTPγS assay [1]: inverse agonists

SMILES: O=C(O)C(Cc1ccccc1)NCc1c(O)ccc2c(-c3ccccc3)cc(=O)oc12 (stereo not shown) [Compound 1]
- % displacement at 10 μM CB1 (CB1 receptor; [2]): 14.1%

SMILES: Cc1noc(-c2ccc(O)cc2O)c1-c1ccc(Br)cc1 [Compound 16]
- IC50 (CB1 receptor; 16 rescreened, data from Figure 4, up to solubility limit, read-out: IC50 ± SEM CB1 (rescreen)): 0.242 ± 0.07 µM
- Ki (CB1 receptor; 16 rescreened, data from Figure 4, up to solubility limit, read-out: Ki ± SEM CB1 (rescreen)): 0.121 ± 0.04 µM
- IC50 (CB1 receptor; [3]): 20.8 ± 4.9 µM
- Ki (CB1 receptor; [4]): 10.4 ± 2.5 µM
- % displacement at 10 μM CB1 (CB1 receptor; [2]): 61.8%
- Ki (CB1 receptor; rescreen experiment, value printed in picture, read-out: CB1 Receptor Binding Ki (printed in Figure 4)): 0.121 µM
- % displacement at 10 μM CB2 (CB2 receptor; [2]): 40.2%
- Functional phenotype at CB1 in GTPγS assay [1]: inverse agonist
- EC50 ([1]; read-out: EC50 CB1 GTPγS): 0.128 µM

SMILES: COc1cc(C)cc2oc(=O)c(CC(=O)N[C@@H](CSCc3ccccc3)C(=O)O)c(C)c12 [Compound 5]
- % displacement at 10 μM CB1 (CB1 receptor; [2]): 14%
- % displacement at 10 μM CB2 (CB2 receptor; [2]): 15.5%

SMILES: O=C(COc1cc(O)c2c(=O)cc(-c3ccccc3)oc2c1)NCCCN1CCCC1=O [Compound 9]
- % displacement at 10 μM CB1 (CB1 receptor; [2]): 28.6%
- % displacement at 10 μM CB2 (CB2 receptor; [2]): 30.2%

SMILES: COc1ccc2[nH]c3c(c2c1)CCNC3c1c(O)n(CCc2ccccc2)c(=S)[nH]c1=O (stereo not shown) [Compound 7]
- Further binding analysis at CB1 (binding curve outcome) (CB1 receptor): no true affinity
- % displacement at 10 μM CB2 (CB2 receptor; [2]): 15.7%

SMILES: Oc1ccc(-c2onc(C(F)(F)F)c2-c2ccccc2)c(O)c1 [PCB-165]
- Ki (CB1 receptor; Table 2, analogs of compound 16, read-out: Ki ± SEM CB1): > 10 µM
- % displacement at 10 μM CB1 (CB1 receptor; Table 2, 10 µM): 33.0%

SMILES: O=c1[nH]n(C2CCCCCC2)c2nc3c(oc4c(O)c(O)ccc43)c(-c3ccc(O)cc3)c12 [Compound 13]
- % displacement at 10 μM CB1 (CB1 receptor; [2]): 23.1%
- % displacement at 10 μM CB2 (CB2 receptor; [2]): 37.4%

SMILES: CN(Cc1ccccc1)Cc1c(O)ccc2c1OC(=Cc1cn(C)c3ccccc13)C2=O [Compound 18]
- IC50 (CB1 receptor; [3]): 24.6 ± 2.6 µM
- Ki (CB1 receptor; [4]): 12.3 ± 1.3 µM
- % displacement at 10 μM CB1 (CB1 receptor; [2]): 69%
- IC50 (CB2 receptor): 0.101 ± 0.035 µM
- Ki (CB2 receptor; Table 1 and text): 0.051 ± 0.01 µM
- % displacement at 10 μM CB2 (CB2 receptor; [2]): 61.2%

SMILES: COc1ccc(-n2cc(C(=O)O)c3c2C(c2ccc(O)c(OC)c2)CC(=O)N3)cc1 (stereo not shown) [Compound 11]
- % displacement at 10 μM CB1 (CB1 receptor; [2]): 37.6%
- % displacement at 10 μM CB2 (CB2 receptor; [2]): 13.1%

SMILES: COc1ccc2[nH]c3c(c2c1)CCN1C(=O)CN(CCc2c[nH]c4ccccc24)C(=O)[C@]31C [Compound 2]
- IC50 (CB1 receptor; [3]): 3.2 ± 1 µM
- Ki (CB1 receptor; [4]): 1.6 µM and 1.62 µM
- % displacement at 10 μM CB1 (CB1 receptor; [2]): 81.8%
- IC50 (CB2 receptor): 3.25 ± 0.5 µM
- Ki (CB2 receptor; Table 1 and text): 1.6 µM and 1.62 µM
- % displacement at 10 μM CB2 (CB2 receptor; [2]): 67.2%
- EC50 [1]: 0.759 µM
- Functional phenotype at CB1 in GTPγS assay [1]: inverse agonists

SMILES: COc1ccccc1NC(=O)C1CC(O)CN1C(=O)OCc1ccccc1 (stereo not shown) [Compound 4]
- % displacement at 10 μM CB1 (CB1 receptor; [2]): 13.9%

SMILES: Cc1cc(O)c2c(C)c(CC(=O)N[C@@H](CSCc3ccccc3)C(=O)O)c(=O)oc2c1 [Compound 6]
- % displacement at 10 μM CB1 (CB1 receptor; [2]): 28%
- % displacement at 10 μM CB2 (CB2 receptor; [2]): 26.7%

SMILES: CCCCCCc1cc(-c2onc(C)c2-c2ccc(Br)cc2)c(O)cc1OC [PCB-164]
- % displacement at 10 μM CB1 (CB1 receptor; Table 2, 10 µM): 29.8%
- Ki (CB2 receptor; Table 2, analogs of compound 16): 0.156 ± 0.0173 µM
- % displacement at 10 μM CB2 (CB2 receptor; Table 2, 10 µM): 97.2%

SMILES: COC(=O)CC(c1ccc(O)cc1)c1oc(CSc2ccccc2)cc(=O)c1O (stereo not shown) [Compound 14]
- % displacement at 10 μM CB1 (CB1 receptor; [2]): 18.7%
- % displacement at 10 μM CB2 (CB2 receptor; [2]): 30%
